Assay results from US20260297105A1, “RAF-MEK PROTEIN COMPLEX MODULATORS AND METHODS OF USE THEREOF” (GANDEEVA THERAPEUTICS, INC., priority 2023, published 2026).

Biological target: T1, MEK1 (Homo sapiens, UniProt Q02750)
T1 construct: purchased SignalChem M02-14H
Assay: MEK1 kinase cascade assay (ADP-Glo), inhibition of MEK1 kinase activity
Type: biochemical
Conditions: 25 nM BRAF, 6.25 nM MEK1, 0.5 μM ERK, 1 mM ATP; 20 min preincubation, 1 hr at 25° C.; read-out: BRAF ADP Glo kinase assay V3 (IC50)
Excerpt: Protein expression and purification: BRAF (445-723) with N-term His-tag and C-term StrepII tag was expressed using the Expi293 system (ThermoFisher) and purified using Strep-Tactin® XT-Superflow (IBA) chromatography. ERK1 (full-length) with N-term His-tag was expressed in Rosetta DE3 cells (Millipore) and purified using HisTrap HP (Cytiva) and Superdex 200 (Cytiva) column chromatography. Full-length MEK1 for TR-FRET assays with N-term His-tag was expressed in BL21DE3 cells (ThermoFisher) and purified using HisTrap HP (Cytiva) and Superdex 200 (Cytiva) column chromatography.
Efficacy of exemplary compounds in inhibition of MEK1 kinase activity: The effect of compound MEK1 inhibition was evaluated using an ADP detection system for kinases, such as the ADP-Glo assay (Promega). The MEK1 kinase cascade assay consisted of 9 μL reaction volumes in 384-well white, opaque Optiplates (PerkinElmer). Compounds were prepared from DMSO stocks in assay buffer (10 mM HEPES pH 7.5, 5 mM MgCl2, 2 mM CHAPS, and 1 mM DTT) and preincubated with 25 nM BRAF for 20 mins at 25° C. prior to addition of 6.25 nM MEK1/0.5 μM ERK/1 mM ATP premix to initiate the kinase reaction. Both BRAF and ERK1 were produced in-house, and MEK1 was purchased from SignalChem (M02-14H). DMSO was kept constant at a final concentration of 1%. After a 1 hr incubation at 25° C., conversion of ATP to ADP was detected using ADP-Glo™ reagents according to the manufacturer's protocol. Luminescence was measured using a CLARIOstar microplate reader (BMG). Percent (%) Inhibition was calculated by normalizing to DMSO control (max) and 1 μM Trametinib (min). % inhibition as a function of compound concentration from 2 replicate wells was fit with a 4-parameter logistic curve equation using GraphPad Prism or CDD Vault to derive IC50 values.
In this table, for the BRAF ADP Glo kinase assay, “A” indicates IC50 of less than 5 nM; “B” indicates IC50 of between 5 nM to 50 nM; and “C” indicates IC50 of between 50 nM to 500 nM. “D” indicates IC50 of greater than 500 nM. For the BRAF-MEK TR-FRET assay, “A” indicates EC50 of less than 50 nM; “B” indicates EC50 of between 50 nM to 200 nM; and “C” indicates EC50 of between 200 nM to 1 μM. “D′” indicates EC50 of greater than 1 μM. For the AlphaLisa P-ERK assay, “A” indicates IC50 of less than 1 nM; “B” indicates IC50 of between 1 nM to 10 nM; and “C” indicates IC50 of between 10 nM to 100 nM. “D” indicates IC50 of greater than 100 nM. For the cell viability assay, “A” indicates IC50 of less than 1 nM; “B” indicates IC50 of between 1 nM to 10 nM; and “C” indicates IC50 of between 10 nM to 100 nM. “D” indicates IC50 of greater than 100 nM.

T1 sequence (Q02750 whole entry): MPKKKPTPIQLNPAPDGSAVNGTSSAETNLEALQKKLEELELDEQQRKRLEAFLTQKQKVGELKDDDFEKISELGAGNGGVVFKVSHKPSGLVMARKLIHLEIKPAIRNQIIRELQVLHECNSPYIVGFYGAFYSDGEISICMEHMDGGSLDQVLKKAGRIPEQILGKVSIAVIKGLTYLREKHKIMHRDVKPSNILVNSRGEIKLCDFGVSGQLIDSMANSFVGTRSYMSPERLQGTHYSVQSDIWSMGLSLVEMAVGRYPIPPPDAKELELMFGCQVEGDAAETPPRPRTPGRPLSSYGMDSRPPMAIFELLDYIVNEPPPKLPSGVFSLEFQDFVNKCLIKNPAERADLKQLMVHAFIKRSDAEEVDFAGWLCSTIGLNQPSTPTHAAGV
T1 sequence (P15056 445-723 partner limits assumed): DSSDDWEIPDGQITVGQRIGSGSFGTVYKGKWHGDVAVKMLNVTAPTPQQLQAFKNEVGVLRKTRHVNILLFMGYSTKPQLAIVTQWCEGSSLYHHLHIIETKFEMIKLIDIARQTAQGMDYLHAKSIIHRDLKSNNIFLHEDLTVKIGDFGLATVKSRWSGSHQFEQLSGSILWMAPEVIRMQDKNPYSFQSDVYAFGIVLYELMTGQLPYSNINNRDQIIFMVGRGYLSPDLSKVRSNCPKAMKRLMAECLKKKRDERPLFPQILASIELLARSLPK

| Compound | IC50 [nM] |
| --- | --- |
| CNS(=O)(=O)Nc1cccc(CN2C(=O)Oc3cc(Oc4ncco4)cc(F)c3[C@H]2C)c1F (single isomer, unassigned) [Compound 87, (R)-5-fluoro-3-({2-fluoro-3-(methylsulfamoyl)amino]phenyl}methyl)-4-methyl-7-(1,3-oxazol-2-yloxy)-3,4-dihydro-2H-1,3-benzoxazin-2-one or (S)-5-fluoro-3-({2-fluoro-3-(methylsulfamoyl)amino]phenyl}methyl)-4-methyl-7-(1,3-oxazol-2-yloxy)-3,4-dihydro-2H-1,3-benzoxazin-2-one] | 50 to 500 |
| CN(C)C(=O)Oc1ccc2c(c1)OC(=O)N(Cc1cccc(N3CCOC3=O)c1F)C2 [Compound 27, dimethylamino-3-{[2-fluoro-3-(2-oxo-1,3-oxazolidin-3-yl)phenyl]methyl}-2-oxo-3,4-dihydro-2H-1,3-benzoxazin-7-ylformylate] | > 500 |
| CNS(=O)(=O)Nc1nccc(CN2C(=O)Oc3cc(Oc4ncc(C)o4)ccc3C23CCC3)c1F [Compound 180, 3-{[3-fluoro-2-(methylaminosulfonylamino)-4-pyridyl]methyl}-7-(5-methyl-1,3-oxazol-2-yloxy)-2H,3H-spiro[1,3-benzoxazine-4,1′-cyclobutan]-2-one] | 5 to 50 |
| CNS(=O)(=O)Cc1cccc(CN2Cc3ccc(OC(=O)N(C)C)cc3OC2=O)c1F [Compound 45, 3-(2-fluoro-3-((N-methylsulfamoyl)methyl)benzyl)-2-oxo-3,4-dihydro-2H-benzo[e][1,3]oxazin-7-yl dimethylcarbamate] | > 500 |
| CNS(=O)(=O)Nc1nccc(CN2C(=O)Oc3cc(Oc4ncco4)cnc3[C@@H]2C)c1F (stereo in doubt) [Compound 190, 3-{[3-fluoro-2-(methylaminosulfonylamino)-4-pyridyl]methyl}-4-methyl-7-(1,3-oxazol-2-yloxy)-3,4-dihydro-2H-1-oxa-3,5-diazanaphthalen-2-one] | 5 to 50 |
| CNS(=O)(=O)Nc1cccc(CN2C(=O)Oc3cc(Oc4ccccn4)ccc3C23COC3)c1F [Compound 50, 3-({2-fluoro-3-[(methylsulfamoyl)amino]phenyl}methyl)-7-(pyridin-2-yloxy)-2,3-dihydrospiro[1,3-benzoxazine-4,3′-oxetan]-2-one] | 5 to 50 |
| CNS(=O)(=O)Nc1cccc(CN2C(=O)Oc3c(ccc(Oc4ncco4)c3F)[C@H]2C)c1F (single isomer, unassigned) [Compound 90, (R)-8-fluoro-3-({2-fluoro-3-(methylsulfamoyl)amino]phenyl}methyl)-4-methyl-7-(1,3-oxazol-2-yloxy)-3,4-dihydro-2H-1,3-benzoxazin-2-one or (S)-8-fluoro-3-({2-fluoro-3-(methylsulfamoyl)amino]phenyl}methyl)-4-methyl-7-(1,3-oxazol-2-yloxy)-3,4-dihydro-2H-1,3-benzoxazin-2-one] | 5 to 50 |
| O=C1Oc2cc(Oc3cccnc3)ccc2CN1Cc1cccc(NS(=O)(=O)C2CC2)c1F [Compound 60, (cyclopropylsulfonyl)(2-fluoro-3-{[2-oxo-7-(3-pyridyloxy)-3,4-dihydro-2H-1,3-benzoxazin-3-yl]methyl}phenyl)amine] | 50 to 500 |
| CNS(=O)(=O)Cc1cccc(CN2C(=O)Oc3cc(OC(=O)N(C)C)ccc3C23COC3)c1F [Compound 47, 3-({2-fluoro-3-[(methylsulfamoyl)methyl]phenyl}methyl)-2-oxo-2,3-dihydrospiro[1,3-benzoxazine-4,3′-oxetan]-7-yl N,N-dimethylcarbamate] | 50 to 500 |

Continued, values first:

| IC50 [nM] | Compound |
| --- | --- |
| 5 to 50 | CNS(=O)(=O)Nc1nccc(CN2C(=O)Oc3cc(Oc4nc(C)co4)ccc3C23CCC3)c1F [Compound 182, 3-{[3-fluoro-2-(methylaminosulfonylamino)-4-pyridyl]methyl}-7-(4-methyl-1,3-oxazol-2-yloxy)-2H,3H-spiro[1,3-benzoxazine-4,1′-cyclobutan]-2-one] |
| 50 to 500 | CNS(=O)(=O)Nc1cc(F)cc(CN2C(=O)Oc3cc(Oc4ncco4)ccc3C23CCC3)c1F [Compound 195, 3-{[2,5-difluoro-3-(methylaminosulfonylamino)phenyl]methyl}-7-(1,3-oxazol-2-yloxy)-2H,3H-spiro[1,3-benzoxazine-4,1′-cyclobutan]-2-one] |
| > 500 | CNS(=O)(=O)Nc1cccc(CN2Cc3ccc(OC4COC4)cc3OC2=O)c1F [Compound 98, 3-{[2-fluoro-3-(methylaminosulfonylamino)phenyl]methyl}-7-(3-oxetanyloxy)-3,4-dihydro-2H-1,3-benzoxazin-2-one] |
| 50 to 500 | O=C1Oc2cc(Oc3cccnn3)ccc2CN1Cc1cccc(N2CCOC2=O)c1F [Compound 26, 3-{[2-fluoro-3-(2-oxo-1,3-oxazolidin-3-yl)phenyl]methyl}-7-(3-pyridazinyloxy)-3,4-dihydro-2H-1,3-benzoxazin-2-one] |
| 50 to 500 | CNS(=O)(=O)Cc1cccc(CN2C(=O)Oc3cc(Oc4cccnn4)ccc3C23COC3)c1F [Compound 46, 1-(2-fluoro-3-{[2-oxo-7-(pyridazin-3-yloxy)-2,3-dihydrospiro[1,3-benzoxazine-4,3′-oxetan]-3-yl]methyl}phenyl)-N-methylmethanesulfonamide] |
| 50 to 500 | CNS(=O)(=O)Nc1cccc(CN2C(=O)Oc3cc(Oc4cnccn4)ccc3C23COC3)c1F [Compound 70, 3-({2-fluoro-3-[(methylsulfamoyl)amino]phenyl}methyl)-7-(pyrazin-2-yloxy)-2,3-dihydrospiro[1,3-benzoxazine-4,3′-oxetan]-2-one] |
| 5 to 50 | CNS(=O)(=O)Nc1cccc(CN2C(=O)Oc3c(ccc(Oc4ncccn4)c3F)[C@@H]2C)c1F (single isomer, unassigned) [Compound 92, (S)-8-fluoro-3-({2-fluoro-3-(methylsulfamoyl)amino]phenyl}methyl)-4-methyl-7-(pyrimidin-2-yloxy)-3,4-dihydro-2H-1,3-benzoxazin-2-one or (R)-8-fluoro-3-({2-fluoro-3-(methylsulfamoyl)amino]phenyl}methyl)-4-methyl-7-(pyrimidin-2-yloxy)-3,4-dihydro-2H-1,3-benzoxazin-2-one] |
| 50 to 500 | CNS(=O)(=O)Nc1ccc(F)c(CN2C(=O)Oc3cc(Oc4cccnn4)ccc3C23CCC3)c1F [Compound 197, 3-{[2,6-difluoro-3-(methylaminosulfonylamino)phenyl]methyl}-7-(3-pyridazinyloxy)-2H,3H-spiro[1,3-benzoxazine-4,1′-cyclobutan]-2-one] |
| 5 to 50 | CNS(=O)(=O)Nc1cccc(CN2C(=O)Oc3cc(Oc4ncco4)c(F)cc3[C@@H]2C)c1F (single isomer, unassigned) [Compound 84, (S)-6-fluoro-3-({2-fluoro-3-(methylsulfamoyl)amino]phenyl}methyl)-4-methyl-7-(1,3-oxazol-2-yloxy)-3,4-dihydro-2H-1,3-benzoxazin-2-one or (R)-6-fluoro-3-({2-fluoro-3-(methylsulfamoyl)amino]phenyl}methyl)-4-methyl-7-(1,3-oxazol-2-yloxy)-3,4-dihydro-2H-1,3-benzoxazin-2-one] |
| 50 to 500 | O=C1Oc2cc(Oc3cnccn3)ccc2C2(COC2)N1Cc1cccc(NS(=O)(=O)C2CC2)c1F [Compound 69, N-(2-fluoro-3-{[2-oxo-7-(pyrazin-2-yloxy)-2,3-dihydrospiro[1,3-benzoxazine-4,3′-oxetan]-3-yl]methyl}phenyl)cyclopropanesulfonamide] |
| 5 to 50 | CNS(=O)(=O)Nc1cccc(CN2Cc3ccc(Oc4cccnc4)cc3OC2=O)c1F [Compound 61, 3-{[2-fluoro-3-(methylaminosulfonylamino)phenyl]methyl}-7-(3-pyridyloxy)-3,4-dihydro-2H-1,3-benzoxazin-2-one] |
